In PMC8085982 (Microbial Biotechnology, 2021):
Read-outs that look alike come from different tables or passages of the source.

Experiments:
[1] = test system: Pa5930 laccase; conditions: 50 mM Tris-HCl pH 7.2, 24 °C
[2] = test system: Pp4816 laccase; conditions: 50 mM Tris-HCl pH 7.2, 24 °C
[3] = test system: Pa5930 laccase; assay: initial rates, OD420, sigmoidal; type: biochemical, Pediococcus acidilactici; conditions: 50 mM sodium citrate pH 3.4, 24 °C; sigmoidal kinetics
[4] = test system: Pp4816 laccase; assay: initial rates, OD420, sigmoidal; type: biochemical, Pediococcus pentosaceus; conditions: 50 mM sodium citrate pH 3.4, 24 °C; sigmoidal kinetics

COc1cccc(OC)c1O [2,6-DMP, 2,6‐dimethoxyphenol]
Km [1]: 3110 ± 850 µM
Km [2]: 6330 ± 1320 µM

CCn1c(=NN=c2sc3cc(S(=O)(=O)O)ccc3n2CC)sc2cc(S(=O)(=O)O)ccc21 [ABTS, 2,2‐azino‐bis(3‐ethylbenzothiazoline‐6‐sulfonic acid)]
Km [3]: 330 ± 40 µM
Km [4]: 310 ± 30 µM
